Source: ChEMBL document CHEMBL6177958, “6,7-Dimethoxy-2-methyl-4-substituted quinazolines: Design, synthesis, EGFR inhibitory activity, in vitro cytotoxicity, and in silico studies” (Eur J Med Chem, 2025)

What was measured:
Assay type in all cases: functional
HCT-116 [1] = test: Cell cycle arrest in human HCT-116 cells assessed as accumulation of cells at G0-G1 phase by flow cytometry (reference value: 46.33%)
HCT-116 [2] = test: Cell cycle arrest in human HCT-116 cells assessed as accumulation of cells at S phase by flow cytometry (reference value: 39.26%)
HCT-116 [3] = test: Cell cycle arrest in human HCT-116 cells assessed as accumulation of cells at G2-M phase by flow cytometry (reference value: 14.41%)
HCT-116 [4] = test: Induction of apoptosis in human HCT-116 cells assessed as total apoptotic cells measured after 24 hrs by PI based flow cytometry (reference value: 2.38%)
HCT-116 [5] = test: Induction of apoptosis in human HCT-116 cells assessed as early apoptotic cells measured after 24 hrs by PI based flow cytometry (reference value: 0.43%)
HCT-116 [6] = test: Induction of apoptosis in human HCT-116 cells assessed as late apoptotic cells measured after 24 hrs by PI based flow cytometry (reference value: […])
HCT-116 [7] = test: Induction of apoptosis in human HCT-116 cells assessed as necrotic apoptotic cells measured after 24 hrs by PI based flow cytometry (reference value: 1.84%)

Question: `COc1cc2nc(C)nc(N/N=C/c3cc(CN4CCN(C)CC4)c(O)c(OC)c3)c2cc1OC` was tested. Which Activity (HCT-116 [1]) did it give?
Answer: 42.18%

Question: And the Activity (HCT-116 [2])?
Answer: 49.11%

Question: And the Activity (HCT-116 [3])?
Answer: 8.71%

Question: What about the Activity (HCT-116 [4]) of the same molecule?
Answer: 39.88%

Question: And the Activity (HCT-116 [5])?
Answer: 26.13%

Question: What about the Activity (HCT-116 [6]) of the same molecule?
Answer: 11.27%

Question: What about the Activity (HCT-116 [7]) of the same molecule?
Answer: 2.48%
